Test results reported in patent US7138361B2, “Herbicidal heterocycles” (E. I. du Pont de Nemours and Company, priority 2000, dated 2006).

Legend:
Experiment in all cases: Test C postemergence
Format in all cases: in vivo
soybean (Glycine max) = system: soybean (Glycine max)
Procedure, shortened: (§1)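 Preemergence: seeds sown then treated. Postemergence: plants 2–18 cm, 1- to 4-leaf. Both with surfactant-containing solvent formulation; visual injury scored 0–100 after 12–14 d.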

[1] = system: giant foxtail (Setaria faberii)
Procedure, shortened: as §1

kochia (Kochia scoparia) = system: kochia (Kochia scoparia)
Procedure, shortened: as §1

[2] = system: woolly cupgrass (Eriochloa villosa)
Procedure, shortened: as §1

[3] = system: johnsongrass (Sorghum halepense)
Procedure, shortened: as §1

[4] = system: morningglory (Ipomoea hederacea)
Procedure, shortened: as §1

[5] = system: lambsquarters (Chenopodium album)
Procedure, shortened: as §1

[6] = system: winter barley (Hordeum vulgare); conditions: Rate 250 g/ha, scale 0 to 100 (0 no effect, 100 complete control)
Procedure, shortened: as §1

[7] = system: common ragweed (Ambrosia elatior)
Procedure, shortened: as §1

[8] = system: bermudagrass (Cynodon dactylon)
Procedure, shortened: as §1

[9] = system: goosegrass (Eleusine indica)
Procedure, shortened: as §1

[10] = system: chickweed (Stellaria media)
Procedure, shortened: as §1

[11] = system: velvetleaf (Abutilon theophrasti)
Procedure, shortened: as §1

[12] = system: pigweed (Amaranthus retroflexus)
Procedure, shortened: as §1

[13] = system: yellow nutsedge (Cyperus esculentus)
Procedure, shortened: as §1

[14] = system: Surinam grass (Brachiaria decumbens)
Procedure, shortened: as §1

[15] = Rate 125 g/ha, scale 0 to 100, 0 no effect, 100 complete control
[16] = Rate 250 g/ha, scale 0 to 100 (0 no effect, 100 complete control)
[17] = Rate 500 g/ha, scale 0 to 100 (0 no effect, 100 complete control)

## CCC(CC)c1ccn(C2OCN(c3cccc(OC(F)(F)F)c3)C2=O)n1 (stereo not drawn) [Compound 68]
Soybean (Glycine max); Rate 62 g/ha, scale 0 to 100
  Plant response rating, Soybean: 0
Soybean (Glycine max); [15]
  Plant response rating, Soybean: 0
Soybean (Glycine max); [16]
  Plant response rating, Soybean: 0
Soybean (Glycine max); [17]
  Plant response rating, Soybean: 20
[1]; Rate 62 g/ha, scale 0 to 100
  Plant response rating, Foxtail, Giant: 0
[1]; [15]
  Plant response rating, Foxtail, Giant: 0
[1]; [16]
  Plant response rating, Foxtail, Giant: 0
[1]; [17]
  Plant response rating, Foxtail, Giant: 0
Kochia (Kochia scoparia); Rate 62 g/ha, scale 0 to 100
  Plant response rating, Kochia: 50
Kochia (Kochia scoparia); [15]
  Plant response rating, Kochia: 70
Kochia (Kochia scoparia); [16]
  Plant response rating, Kochia: 70
Kochia (Kochia scoparia); [17]
  Plant response rating, Kochia: 70
[2]; Rate 62 g/ha, scale 0 to 100
  Plant response rating, Cupgrass, Woolly: 0
[2]; [15]
  Plant response rating, Cupgrass, Woolly: 0
[2]; [16]
  Plant response rating, Cupgrass, Woolly: 0
[2]; [17]
  Plant response rating, Cupgrass, Woolly: 30
[3]; Rate 62 g/ha, scale 0 to 100
  Plant response rating, Johnsongrass: 0
[3]; [15]
  Plant response rating, Johnsongrass: 0
[3]; [16]
  Plant response rating, Johnsongrass: 0
[3]; [17]
  Plant response rating, Johnsongrass: 20
[4]; Rate 62 g/ha, scale 0 to 100
  Plant response rating, Morningglory: 50
[4]; [15]
  Plant response rating, Morningglory: 60
[4]; [16]
  Plant response rating, Morningglory: 60
[4]; [17]
  Plant response rating, Morningglory: 70
[5]; Rate 62 g/ha, scale 0 to 100
  Plant response rating, Lambsquarters: 60
[5]; [15]
  Plant response rating, Lambsquarters: 80
[5]; [16]
  Plant response rating, Lambsquarters: 80
[5]; [17]
  Plant response rating, Lambsquarters: 100
[6]
  Plant response rating, Barley, Winter: 0
[7]; Rate 62 g/ha, scale 0 to 100
  Plant response rating, Ragweed, Common: 0
[7]; [15]
  Plant response rating, Ragweed, Common: 0
[7]; [16]
  Plant response rating, Ragweed, Common: 0
[7]; [17]
  Plant response rating, Ragweed, Common: 30
[8]; Rate 62 g/ha, scale 0 to 100
  Plant response rating, Bermudagrass: 0
[8]; [15]
  Plant response rating, Bermudagrass: 0
[8]; [16]
  Plant response rating, Bermudagrass: 20
[8]; [17]
  Plant response rating, Bermudagrass: 40
[9]; Rate 62 g/ha, scale 0 to 100
  Plant response rating, Goosegrass: 0
[9]; [15]
  Plant response rating, Goosegrass: 0
[9]; [16]
  Plant response rating, Goosegrass: 0
[9]; [17]
  Plant response rating, Goosegrass: 0
[10]; Rate 62 g/ha, scale 0 to 100
  Plant response rating, Chickweed: 30
[10]; [15]
  Plant response rating, Chickweed: 40
[10]; [16]
  Plant response rating, Chickweed: 70
[10]; [17]
  Plant response rating, Chickweed: 80
[11]; Rate 62 g/ha, scale 0 to 100
  Plant response rating, Velvetleaf: 0
[11]; [15]
  Plant response rating, Velvetleaf: 0
[11]; [16]
  Plant response rating, Velvetleaf: 0
[11]; [17]
  Plant response rating, Velvetleaf: 30
[12]; Rate 62 g/ha, scale 0 to 100
  Plant response rating, Pigweed: 60
[12]; [15]
  Plant response rating, Pigweed: 70
[12]; [16]
  Plant response rating, Pigweed: 70
[12]; [17]
  Plant response rating, Pigweed: 100
[13]; Rate 62 g/ha, scale 0 to 100
  Plant response rating, Nutsedge: 0
[13]; [15]
  Plant response rating, Nutsedge: 0
[13]; [16]
  Plant response rating, Nutsedge: 0
[13]; [17]
  Plant response rating, Nutsedge: 0
[14]; Rate 62 g/ha, scale 0 to 100
  Plant response rating, Surinam grass: 0
[14]; [15]
  Plant response rating, Surinam grass: 0
[14]; [16]
  Plant response rating, Surinam grass: 0
[14]; [17]
  Plant response rating, Surinam grass: 0

## Cc1ccc(N2CCC(n3ccc(C(C)(C)C)n3)C2=O)cc1OCCCl (stereo not drawn) [Compound 109]
Soybean (Glycine max); Rate 31 g/ha, scale 0 to 100
  Plant response rating, Soybean: 60
Soybean (Glycine max); Rate 62 g/ha, scale 0 to 100
  Plant response rating, Soybean: 70
Soybean (Glycine max); [16]
  Plant response rating, Soybean: 70
[1]; Rate 31 g/ha, scale 0 to 100
  Plant response rating, Foxtail, Giant: 0
[1]; Rate 62 g/ha, scale 0 to 100
  Plant response rating, Foxtail, Giant: 0
[1]; [16]
  Plant response rating, Foxtail, Giant: 0
Kochia (Kochia scoparia); Rate 31 g/ha, scale 0 to 100
  Plant response rating, Kochia: 80
Kochia (Kochia scoparia); Rate 62 g/ha, scale 0 to 100
  Plant response rating, Kochia: 80
Kochia (Kochia scoparia); [16]
  Plant response rating, Kochia: 90
[2]; Rate 31 g/ha, scale 0 to 100
  Plant response rating, Cupgrass, Woolly: 0
[2]; Rate 62 g/ha, scale 0 to 100
  Plant response rating, Cupgrass, Woolly: 0
[2]; [16]
  Plant response rating, Cupgrass, Woolly: 0
[3]; Rate 31 g/ha, scale 0 to 100
  Plant response rating, Johnsongrass: 0
[3]; Rate 62 g/ha, scale 0 to 100
  Plant response rating, Johnsongrass: 0
[3]; [16]
  Plant response rating, Johnsongrass: 0
[3]; rate not given, scale 0 to 100
  Plant response rating, Johnsongrass: 0
[4]; Rate 31 g/ha, scale 0 to 100
  Plant response rating, Morningglory: 60
[4]; Rate 62 g/ha, scale 0 to 100
  Plant response rating, Morningglory: 100
[5]; Rate 31 g/ha, scale 0 to 100
  Plant response rating, Lambsquarters: 70
[5]; Rate 62 g/ha, scale 0 to 100
  Plant response rating, Lambsquarters: 70
[5]; [16]
  Plant response rating, Lambsquarters: 100
[6]
  Plant response rating, Barley, Winter: 0
[7]; Rate 31 g/ha, scale 0 to 100
  Plant response rating, Ragweed, Common: 0
[7]; Rate 62 g/ha, scale 0 to 100
  Plant response rating, Ragweed, Common: 0
[8]; Rate 31 g/ha, scale 0 to 100
  Plant response rating, Bermudagrass: 0
[8]; Rate 62 g/ha, scale 0 to 100
  Plant response rating, Bermudagrass: 0
[8]; [15]
  Plant response rating, Bermudagrass: 10
[8]; [16]
  Plant response rating, Bermudagrass: 20
[9]; Rate 31 g/ha, scale 0 to 100
  Plant response rating, Goosegrass: 0
[9]; Rate 62 g/ha, scale 0 to 100
  Plant response rating, Goosegrass: 0
[9]; [16]
  Plant response rating, Goosegrass: 10
[11]; Rate 31 g/ha, scale 0 to 100
  Plant response rating, Velvetleaf: 20
[11]; Rate 62 g/ha, scale 0 to 100
  Plant response rating, Velvetleaf: 40
[11]; scale 0 to 100
  Plant response rating, Velvetleaf: 70
[12]; Rate 31 g/ha, scale 0 to 100
  Plant response rating, Pigweed: 70
[12]; Rate 62 g/ha, scale 0 to 100
  Plant response rating, Pigweed: 70
[12]; [16]
  Plant response rating, Pigweed: 70
[13]; Rate 31 g/ha, scale 0 to 100
  Plant response rating, Nutsedge: 0
[13]; Rate 62 g/ha, scale 0 to 100
  Plant response rating, Nutsedge: 0
[13]; [16]
  Plant response rating, Nutsedge: 0
[14]; Rate 31 g/ha, scale 0 to 100
  Plant response rating, Surinam grass: 0
[14]; Rate 62 g/ha, scale 0 to 100
  Plant response rating, Surinam grass: 0
[14]; [15]
  Plant response rating, Surinam grass: 0
[14]; [16]
  Plant response rating, Surinam grass: 0
